# Laboratory results published in a melting point compilation (Tetko et al.; mined from patent text by program, amines drawn as free bases though some values may be those of a salt).
row,Compound,melting point [°C]
1,O=c1[nH]c(Cl)c(Cc2ccccc2)c(=O)n1Cc1ccccc1,146 to 148
2,O=C(O)c1ccc(OCC(O)c2cc3cc(Cl)ccc3o2)cc1 (stereo unspecified),157 to 159
3,CS(=O)(=O)c1ccc(-c2oc3ccccc3c(=O)c2-c2cccc(F)c2)cc1,225
4,O=S(=O)(Nc1ccc2c(OCc3ccc(-c4ccc(F)cc4)cc3F)cccc2c1)C(F)(F)F,134 to 136
5,O=C(O)c1cc(Cl)c(-n2ccc(C(F)(F)F)cc2=O)c(Cl)c1,259 to 260
6,CNS(=O)(=O)CCc1ccc(NN=CCCC#N)cc1,96 to 97
7,C(=C\c1nc(COc2ccc(CCCCn3ccnc3)cc2)co1)/c1ccccc1,103 to 104
8,O=C(NCc1ccc(Cl)cc1Cl)N1CCc2[nH]cnc2C1CCC1CCCCC1 (stereo unspecified),185 to 187
9,N#CN=C(NCCSCc1ncccc1Br)NCCSCc1ncccc1Br,118 to 119
10,CC(CCl)N1C(=O)N(c2ccc(Cl)cc2)CC1C (stereo unspecified),70 to 72
11,c1cncc(-c2cc(Oc3ccc4cccnc4c3)ncn2)c1,155 to 158
12,O=C1C(=O)N(Cc2ccccc2F)c2ccc(S(=O)(=O)N3CC[C@H]3COc3ccccc3)cc21,147 to 148
13,Cc1cc(C#N)ccc1N1CCCn2c1nc1c(Cl)ccc(C(OCC(F)(F)F)C3CC3)c12 (stereo unspecified),207 to 209
14,Clc1cc(Cl)c2[nH]c(-c3ccccc3)cc2c1,136 to 138
15,O=C1CCCc2cc(F)cc(Sc3ccccc3)c21,112 to 113
16,CCCCCCn1c(=O)c2c(ncn2CCCCC(C)O)n(C)c1=O (stereo unspecified),68 to 69
17,CN1C(=O)C2CC(c3ccc([N+](=O)[O-])cc3)(C2)C1=O,185 to 188
18,Cc1ccn2cc(CC(=O)N3CCN(c4ccc5[nH]c(=O)ccc5c4)CC3)nc2c1,> 250
19,NC1(C(F)F)CCCNC1=O (stereo unspecified),149
20,COc1cc([N+](=O)[O-])c2nccc(C)c2c1OCCCCCc1ccco1,47 to 49
21,Nc1cc(OCc2ccccc2)ccc1NC(=O)c1ccc(C23CC4CC(CC(C4)C2)C3)c(OCc2ccccc2)c1,178
22,CS(=O)(=O)c1cc(C(=O)O)ccc1Oc1ccc([N+](=O)[O-])cc1,140 to 150
23,O=C(O)c1cc(F)c(F)c(OC(F)F)c1F,68 to 70
24,CC(C)(C)OC(=O)N1CCC(c2cc(C(F)(F)F)ccc2N)CC1,120
25,COc1ccc2c(c1)[C@@]1(C(=O)O)CC=CC[C@H]1CC2 (relative stereo),125
26,ClCCCCCOc1ccc(Br)c(CCOCc2ccccc2)c1,54 to 55

row,Compound,melting point [°C]
1,O=C(C1=COc2cc(O)ccc2O1)N1CCN(C(c2ccc(F)cc2)c2ccc(F)cc2)CC1,163
2,O=[N+]([O-])c1ccc(C(O)CSCc2ccncc2)cc1 (stereo unspecified),135 to 137
3,CC(C)(C)OC(=O)NCc1ccc(OCCC2Oc3ccccc3N(Cc3ccccc3Cl)C2=O)cc1 (stereo unspecified),121 to 123
4,CC(=O)Cn1c(CO)nc(C(C)C)c1Sc1cc(Cl)cc(Cl)c1,165 to 167
5,C=C(C)Cc1c(C)c(NC=O)c(C)c(CC(=C)C)c1O,169 to 170
6,Cn1ccnc1Sc1ccc(Nc2c(C#N)cnc3cc(F)ccc23)cc1Cl,268 to 272
7,Cc1cc(C2=NOC(O)(C(F)(F)F)C2Cl)c(F)cc1Cl (stereo unspecified),90 to 91
8,COc1ncc(Cl)cc1C1OC(=O)NC1=O (stereo unspecified),199 to 204
9,CC(=O)OCC1=C(C(=O)OC(C)(C)C)N2C(=O)C(NC(=O)CC3=CSCCS3)C2SC1 (stereo unspecified),80
10,COc1ccc(CC(=O)C=NN=P(c2ccccc2)(c2ccccc2)c2ccccc2)cc1,111 to 112
11,C[C@]1(COc2ccc(N3CCC(N4CCN(c5ccc(OC(F)(F)F)cc5)CC4)CC3)cc2)Cn2cc([N+](=O)[O-])nc2O1,279 to 281
12,CC(C)(C)OC(=O)NC1CCCCCC=CC2CC2(C(=O)NS(=O)(=O)C2CC2)NC(=O)C2CC(OC(=O)c3ccc(-n4cccn4)cc3)CN2C1=O (stereo unspecified),167 to 169
13,O=S1(=O)N=CN(C2CC2)c2c(Cl)cccc21,159 to 160
14,N#Cc1cccc(N(C(=O)NC2CCN(Cc3ccccc3)CC2)C2CCCC2)c1,165 to 166
15,C=Cn1cc(C(=O)OCC)c(=O)c2cc(F)c(N3CCN(C)CC3)cc21,186 to 188
16,O=C(O)CN(C(=O)Cc1ccc(Cl)c(Cl)c1)[C@H](CN1CC[C@H](O)C1)c1ccccc1,162 to 164
17,COc1cc2c(cc1OCc1ccccc1)CCN(Cc1cc(F)cc(F)c1)C2,116 to 117
18,O=C(O)c1cccc(CN2CCC(N3C(=O)Nc4ccccc4C3c3ccccc3)CC2)c1 (stereo unspecified),> 250
19,CC(=O)Oc1ccc(CC2CCCN2C)cc1OC(C)=O (stereo unspecified),44 to 45
20,O=S(Cc1cn(C23CC4CC(CC(C4)C2)C3)nn1)c1cc(Cl)ccc1Cl (stereo unspecified),125 to 128
21,Cc1nc2c(Cl)cnn2c(Cl)c1CCCl,115 to 117
22,CCOC(=O)C1C(=O)N(C)C(=S)N(C)C1=O,90 to 93
23,COc1cc2ncc(C#N)c(Nc3cc(Br)c(O)c(Br)c3)c2cc1OC,> 250
24,CN1CC(=Cc2c(F)c(F)c(N=[N+]=[N-])c(F)c2F)C(=O)C(=Cc2c(F)c(F)c(N=[N+]=[N-])c(F)c2F)C1,153
25,C[Si](C)(C)c1ccc(-c2ccc(I)cc2F)c(F)c1F,76
26,Cn1nc(C(F)(F)F)n(-c2ccc(F)cc2)c1=S,94 to 96

# Now from value to compound:
row,melting point [°C],Compound
1,122 to 125,N[C@@H](Cc1ccccc1)C(=O)N(CC1CC(Br)=NO1)C(=O)OCc1ccccc1 (stereo partly specified)
2,83 to 84,O=C(O)C(O)(CSc1ccccc1)C(F)(F)F (stereo unspecified)
3,131 to 132,Cc1ccc(S(=O)(=O)ON=C(C#N)c2ccccc2)cc1
4,210 to 212,CCCNC(=O)C(C)Cc1ccc2cccc(Cc3ccc(C(=O)NS(=O)(=O)c4ccccc4C)cc3OC)c2c1 (stereo unspecified)
5,102 to 104,O=C(N[C@H](Cc1ccccc1)C(=O)O)C1CCCC1
6,220 to 221,NC(=O)Cn1cc(-c2ccccc2)c2cc(Cl)ccc21
7,160 to 164,O=C1CCC(=O)C(c2ccccc2)N1 (stereo unspecified)
8,118 to 124,Cc1cc2c(s1)Nc1ccccc1N=C2N1CCN(C)[C@@H](CO)C1
9,231 to 232,CCOC(=O)C(=O)Nc1ccccc1C(=O)Nc1nnn[nH]1
10,121 to 124,N#CC(c1ccccc1Cl)N1CCc2sccc2C1 (stereo unspecified)
11,88 to 90,CCOc1c2ccccc2c(C=O)c2ccccc12
12,102 to 104,CC(C)Oc1ccc2c(O)c(C(=O)NCCO)nc(Cl)c2c1
13,171 to 173,Cc1sc2c(c1C(=O)c1ccc(N(C)C)cc1)CCC2C(=O)O (stereo unspecified)
14,176 to 177,O=C(O)c1cccc(=O)n1OCc1ccccc1
15,175 to 176,CCOCc1nc2c(N)nc3cc(-n4ccnc4)cnc3c2n1CC(C)C
16,162 to 164,CC(=O)NC(C(=O)OCc1cc(C)cc(C)c1)C1c2ccccc2-c2ccccc21 (stereo unspecified)
17,182,CN(C(=O)Nc1ccc(Cl)cc1)c1nncs1
18,169 to 171,O=C1c2ccccc2C(=O)N1CCCCc1nc[nH]n1
19,118,Cc1nn(C)c(F)c1C(=O)Nc1ccccc1C(C)C(O)C(C)C (stereo unspecified)
20,142,O=C(Nc1ccc(Cl)cc1)C(CS)Cc1ccccc1 (stereo unspecified)
21,169 to 171,CC1CCCN(C(=O)C2C(C)c3ccccc3N2c2ccc(Cl)nn2)C1 (stereo unspecified)
22,164,CC(C)(C)OC(=O)[C@@H]1CS[C@H](c2ccccc2)N1C(=O)CNC(=O)Nc1cccc(CCO)c1
23,161 to 162,COc1cccc(C2C(=O)CCc3ccccc32)c1 (stereo unspecified)
24,189,O=C(O)CCc1cc2cc(Cl)ccc2n1S(=O)(=O)c1ccccn1
25,206 to 208,COc1ccc(CN2C(=O)C(NC(=O)Nc3ccccc3)C(=O)N(CCC(C)C)c3ccccc32)cc1 (stereo unspecified)

row,melting point [°C],Compound
1,110 to 112,Cc1ccc(S(=O)(=O)N[C@@H](C)C(=O)Oc2csc(-c3ccccc3)n2)cc1
2,197 to 198,Cc1ccc(Cl)cc1NC(=S)Nc1nccs1
3,66 to 69,O=C(CCCCCBr)Nc1ccc(O)cc1F
4,129 to 131,CC(C)(C)C(=O)OCc1cc2c(OCC3CO3)cccc2[nH]1 (stereo unspecified)
5,210 to 212,CC(C)(C)OC(=O)NCc1cccc(Nc2ncnc3[nH]cc(C(=O)c4ccccc4)c23)c1
6,112 to 115,NS(=O)c1ccccc1 (stereo unspecified)
7,215,CCOC(=O)c1cccc(NC(=O)CN2C(=O)c3ccccc3C2=O)c1
8,212 to 214,O=C(Nc1ccc(O)cc1)Nc1cc(Cl)ccc1C(=O)O
9,115 to 116,CCOc1ccc(OCc2ccc(OCc3nc(-c4ccccc4)oc3C)cc2)c(CCC(=O)O)c1
10,114 to 116,CCCSc1cc(-c2c[nH]nc2C(F)(F)F)ccc1C(=O)OC
11,106 to 107,COC(=O)c1ccnc(OCc2nc(-c3ccccc3)oc2C)c1
12,40 to 42,COCc1cccc(C(O)c2nc(OC)cc(OC)n2)c1N (stereo unspecified)
13,126 to 127,CCOC(=O)CC1CCc2cncn2C1c1ccc(C#N)cc1 (stereo unspecified)
14,> 250,Cn1ncc(C(=O)N2CCC2)c1C(=O)Nc1ccn2nc(Br)nc2c1
15,148 to 151,CSc1nc(C)nc(SC)c1NC(=O)CCCCCSc1nc2ccccc2o1
16,101 to 102,COC(=O)C(=O)c1ccc(OCc2ccc3ccccc3c2)cc1
17,157 to 159,CCc1cccc(C)c1CNc1cc(Cl)nc2c1nc(C)n2C
18,159 to 162,CC(O)CC(=O)Nc1c(C(=O)c2ccccc2)[nH]c2cc(Cl)ccc12 (stereo unspecified)
19,185 to 188,CN(C)C(=O)N(SC(N)=S)c1ccccc1
20,236 to 237,O=C(c1ccccc1)c1ccc2nc3c(C(=O)O)cccc3nc2c1
21,214,Nc1ccccc1CN[C@@H](CSCC(=O)O)C(=O)O
22,228 to 230,COc1ncccc1C(=O)NC1CN(C)CCn2c1nc(-c1ccncn1)cc2=O (racemic)
23,159 to 163,COCC(=O)Nc1ccc2ncnc(Nc3cccc(I)c3)c2c1
24,100 to 103,COC(=O)c1cccc(NC(=O)CC(=O)c2ccccc2)c1C(=O)OC
